Literature values, collected in US8961928B2, “Ligand and metal complex having the same” (National Chiao Tung University, priority 2012, dated 2015).
Like-named read-outs stand apart in the source and are kept apart here.

Relaxivity r1 (pH 7.6 ± 0.1, data from Inorg. Chem., 2001, 40, 2170-2176) [mM⁻¹ s⁻¹] | Relaxivity r1 (pH 7.5 ± 0.1, data from Inorg. Chem., 2005, 44, 382) [mM⁻¹ s⁻¹] | SMILES
3.89 ± 0.03 |  | O=C([O-])CN(CCN(CC(=O)[O-])CC(=O)[O-])CCN(CC(=O)[O-])CC(=O)[O-].[Gd+3] [[Gd(DTPA)]^2−]
 | 3.85 ± 0.03 | O=C([O-])CN(CCCN(CC(=O)[O-])CC(=O)[O-])CCN(CC(=O)[O-])CC(=O)[O-].[Gd+3] [[Gd(TTDA)]^2−]
